Data on three compounds can be found in patent publication US20170056336A1, “CO-TARGETING ANDROGEN RECEPTOR SPLICE VARIANTS AND MTOR SIGNALING PATHWAY FOR THE TREATMENT OF CASTRATION-RESISTANT PROSTATE CANCER” (British Columbia Cancer Agency Branch, priority 2015, published 2017).

In assay [1] the test system is mTOR and AR pathways in parental LNCaP cells. Put plainly: Western blot analysis of mTOR and AR pathways in parental LNCaP cells. It counts as cell-based, human. Particulars: parental LNCaP cells, R1881 1 nM. On the technique in general: A western blot detects proteins with antibodies after separation by electrophoresis.
For assay [2], the system named is mTOR and AR pathways in LNCaP95 cells. Put plainly: Western blot analysis of mTOR and AR pathways in LNCaP95 cells. Type of assay: cell-based, human. Conditions: for expression of UBE2C / pS6 levels: enzalutamide 10 uM; for pS6 levels: regardless of androgen status; for BEZ-235-increased protein levels of FL-AR, AR-V7 and PSA: elevations caused by BEZ-235 15 nM, LNCaP95 and LNCaP cells. Here is the method:
Cells were harvested and whole-cell lysate (10 to 15 ug) was subjected to SDS-PAGE. Antibodies used were: AR (1:1000; Santa Cruz), AR-V7 (1:400; Precision), p110α (1:500; BD Bioscience), p110β (1:1000; abcam), […] (1:1000; abcam), p110δ (1:1000; abcam), UBE2C (Boston Biochem; 1:1000), PTEN (1:1000), pS6 (1:2000), pAktThr308 (1:1000), pAktSer473 (1:2000), p4EBP1 (1:1000), total-Akt (1:1000), total-S6 (1:1000), total-4EBP1 (1:1000), pERK/MAPK (1:1000), total-ERK/MAPK (1:1000) from Cell Signaling technology (Danvers, Mass.). β-actin (1:10,000, Abcam) was used as a loading control.
Protein levels of PSA were undetectable in LNCaP95 cells.

The test system of a further assay is LNCaP95 cells. The assay is described as follows: Cell proliferation BrdU immunoassay. It counts as cell-based, human. Particulars: R1881 0.1 nM, 48 h, serum-free, Compound A 25 uM, enzalutamide 10 uM, BEZ-235 15 nM, everolimus 10 nM.
Another assay has as its target T1, AR (Homo sapiens, UniProt P10275, T878A).
T1 sequence (P10275 1-920 T878A): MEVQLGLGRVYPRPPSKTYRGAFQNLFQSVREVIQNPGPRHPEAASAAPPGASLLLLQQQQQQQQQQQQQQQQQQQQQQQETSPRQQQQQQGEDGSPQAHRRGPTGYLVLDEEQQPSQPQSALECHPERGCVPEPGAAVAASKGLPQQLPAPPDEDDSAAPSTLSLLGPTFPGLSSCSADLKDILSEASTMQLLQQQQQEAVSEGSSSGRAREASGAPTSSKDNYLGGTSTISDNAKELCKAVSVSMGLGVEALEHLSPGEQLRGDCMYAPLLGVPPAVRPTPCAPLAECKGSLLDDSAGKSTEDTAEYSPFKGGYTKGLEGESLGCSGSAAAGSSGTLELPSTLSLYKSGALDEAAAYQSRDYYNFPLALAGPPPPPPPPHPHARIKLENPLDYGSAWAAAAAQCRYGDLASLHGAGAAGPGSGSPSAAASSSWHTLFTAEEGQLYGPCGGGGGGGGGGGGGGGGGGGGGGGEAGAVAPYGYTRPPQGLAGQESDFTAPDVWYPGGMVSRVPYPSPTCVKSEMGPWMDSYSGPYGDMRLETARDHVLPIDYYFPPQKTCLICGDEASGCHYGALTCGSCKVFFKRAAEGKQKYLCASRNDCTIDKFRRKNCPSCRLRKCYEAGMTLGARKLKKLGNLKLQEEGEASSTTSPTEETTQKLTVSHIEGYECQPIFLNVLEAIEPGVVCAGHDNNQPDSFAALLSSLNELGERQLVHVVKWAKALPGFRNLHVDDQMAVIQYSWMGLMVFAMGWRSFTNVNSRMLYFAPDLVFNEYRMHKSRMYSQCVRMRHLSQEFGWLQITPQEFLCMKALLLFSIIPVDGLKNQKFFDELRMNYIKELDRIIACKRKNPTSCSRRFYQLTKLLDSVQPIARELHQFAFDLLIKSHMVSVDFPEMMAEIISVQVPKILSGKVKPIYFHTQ
Put plainly: PSA-, ARR3-, PB-luciferase AR reporter assay in LNCaP95 cells. Particulars: LNCaP95 cells treated with androgen and BEZ-235 15 nM. (In general: Reporter assays use an easily measured gene product as a stand-in for the process of interest.)

The next assay concerns the target T2, AR NTD (Homo sapiens, UniProt P10275).
T2 sequence (P10275 1-558): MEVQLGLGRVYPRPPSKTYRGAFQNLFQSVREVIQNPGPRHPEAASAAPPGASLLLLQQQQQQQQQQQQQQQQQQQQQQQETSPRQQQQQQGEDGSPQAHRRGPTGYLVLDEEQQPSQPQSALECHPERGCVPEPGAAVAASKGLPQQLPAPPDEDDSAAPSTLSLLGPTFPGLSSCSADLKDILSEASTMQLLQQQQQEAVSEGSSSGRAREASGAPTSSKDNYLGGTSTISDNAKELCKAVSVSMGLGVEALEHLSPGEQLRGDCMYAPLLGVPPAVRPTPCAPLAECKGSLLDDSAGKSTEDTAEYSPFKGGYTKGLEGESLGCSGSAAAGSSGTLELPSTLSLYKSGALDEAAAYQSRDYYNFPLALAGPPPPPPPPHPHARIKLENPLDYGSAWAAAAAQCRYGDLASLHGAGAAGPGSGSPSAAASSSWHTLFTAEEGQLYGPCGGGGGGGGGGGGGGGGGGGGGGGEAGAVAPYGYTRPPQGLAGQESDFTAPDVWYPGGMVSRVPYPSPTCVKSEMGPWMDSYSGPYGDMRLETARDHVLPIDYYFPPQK
Put plainly: AR NTD transactivation assay in LNCaP cells. Type of assay: cell-based. Particulars: IL-6 50 ng/ml, 24 h. Here is the method: Transactivation assays of the AR NTD were performed in LNCaP and LNCaP95 cells cotransfected with p5xGal4UAS-TATA-luciferase and AR NTD-Gal4DBD (FIG. 2D). […] LNCaP95 cells were harvested 24 h after the treatment of indicated compounds.
The AR NTD is essential for full transcriptional activities (Quayle, S. N. et. al., PNAS 2007, 104, 1331-1336). In LNCaP cells, transactivation of the AR NTD can be induced with IL-6 or by stimulation of the PKA pathway with FSK. In LNCaP95 cells, there is high intrinsic activity of the AR NTD which cannot be further induced by stimulation of these pathways.

Assay [3] relates to genes regulated by FL-AR and AR-V7 in LNCaP95 cells. The assay is described as follows: Gene expression analysis (quantitative real-time RT-PCR) in LNCaP95 cells. Type of assay: cell-based, human.
The subject of assay [4] is LNCaP95 xenografts. Put plainly: Western blot analyses of protein lysates from xenografts. It counts as in vivo, mice.
Assay [5] deals with LNCaP95 xenografts. Put plainly: Immunohistochemistry of harvested xenografts. It counts as in vivo, mice.
The mark [6] stands for this setting: LNCaP95 cells, Compound A 25 uM.
[7] abbreviates: absence of androgen, with BEZ-235.
[8] abbreviates: in response to androgen, Compound A 35 uM.
The mark [9] stands for this setting: harvested tumors, Compound A 100 mg/kg, BEZ-235 5 mg/kg.

As to `CNC(=O)c1ccc(N2C(=S)N(c3ccc(C#N)c(C(F)(F)F)c3)C(=O)C2(C)C)cc1F` [enzalutamide, 4-(3-(4-cyano-3-(trifluoromethyl)phenyl)-5,5-dimethyl-4-oxo-2-thioxoimidazolidin-1-yl)-2-fluoro-N-methylbenzamide], in assay [1], the “androgen-induced levels of PSA” value is given as “blocking”. Further, in assay [2] (setting [6]), the “expression of UBE2C” value is given as “not” and the pS6 levels entry is reported as “decreased”. Further, the “BEZ-235-increased protein levels of FL-AR, AR-V7 and PSA” value in assay [2] is on record as “at least in part attenuated”.
Take `CO[C@H]1C[C@@H]2CC[C@@H](C)[C@@](O)(O2)C(=O)C(=O)N2CCCC[C@H]2C(=O)O[C@H]([C@H](C)C[C@@H]2CC[C@@H](OCCO)[C@H](OC)C2)CC(=O)[C@H](C)/C=C(\C)[C@@H](O)[C@@H](OC)C(=O)[C@H](C)C[C@H](C)/C=C/C=C/C=C/1C` [everolimus]: the “proliferation (BrdU incorporation)” value in the assay with LNCaP95 cells is reported as “inhibited”. Besides, the pAkt entry in assay [2] (LNCaP95 cells, BEZ-235 15 nM, everolimus) is on record as “without decreasing”. For the same compound, the “levels of UBE2C” value in assay [2] (LNCaP95 cells, absence of androgen, everolimus) is reported as “reduced”. In assay [2] (LNCaP95 cells, titration experiments), the “protein levels of FL-AR” value is given as “increased”. In assay [2] (LNCaP95 cells, titration, BEZ-235 15 nM, everolimus 10 nM), the pS6 ribosomal protein entry is listed as “reduced”.
Consider `CC(C)(c1ccc(OC[C@H](O)CO)cc1)c1ccc(OC[C@H](O)CCl)cc1` [Compound A], for which the “proliferation (BrdU incorporation)” value in the assay with LNCaP95 cells was “inhibited”. In assay [1], the “androgen-induced FKBP5” value is recorded as “poor inhibitor” and the “androgen-induced levels of PSA” value is listed as “comparable to enzalutamide”. Moreover, the “BEZ-235-increased PSA-, ARR3- and PB-luciferase activities” value at AR was “blocked”. On AR NTD, the “AR-NTD transactivation induced by IL-6” value is “significantly inhibited”. The “transcript levels of AR-V7 target genes (UBE2C, CDC20, Akt1)” value in assay [3] (absence of androgen) was “consistently reduced”. For the same compound, in assay [3] (setting [7]), the “BEZ-235-induced increase in transcript levels of AR-V7” value was “blocked” and the “BEZ-235-induced levels of PSA transcript” value is “blocked”. Also, in assay [3] (setting [8]), the “expression of FKBP5” value is on record as “inhibited”, the “expression of KLK3” value is on record as “inhibited” and the “expression of TMPRSS2” value is “inhibited”. Further, the UBE2C levels entry in assay [3] (monotherapy, regardless of androgen) is “attenuated”. Also, the “levels of p4EBP1” value in the assay on LNCaP95 xenografts [4] (harvested tumors, normalized to total 4EBP1) is recorded as “no significant change”. Further, in the assay with LNCaP95 xenografts [4] (harvested tumors, normalized to total Akt), the “levels of pAkt” value is recorded as “no significant change”. For the same compound, in the assay with LNCaP95 xenografts [4] (setting [9]), the “protein levels of UBE2C” value is reported as “reduced” and the “protein levels of pS6” value is given as “reduced”. Also, the “protein levels of FKBP5” value in the assay on LNCaP95 xenografts [4] (in vivo, monotherapies) was “reduced”. Further, in the assay with LNCaP95 xenografts [5], the “apoptosis (TUNEL staining)” value is “increased” and the “proliferation (Ki67 staining)” value is “significantly decreased”. In the assay on LNCaP95 xenografts [5] (immunohistochemistry), the UBE2C staining result is listed as “reduced” and the pS6 staining result is given as “reduced”. In assay [2] (setting [6]), the “expression of UBE2C” value was “markedly reduced” and the pS6 levels entry is “reduced”. The “levels of FKBP5” value in assay [2] (LNCaP95 cells, presence of androgen (R1881 1 nM), Compound A 25 uM) was “no effect”. Also, in assay [2], the “BEZ-235-increased protein levels of FL-AR, AR-V7 and PSA” value is “at least in part attenuated”.
